Columns and labels:
Cbl-b (aa36-427) = biological target: T1, Cbl-b (aa36-427) (Homo sapiens, UniProt Q13191); assay: Co-expressed Cbl-b with BirA biochemical assay (CBLB/E2-Ub binding, HTRF); settings: 0.6 nM Cbl-b co-expressed with BirA, HTRF; read-out: co-express CBLB/E2-Ub-binding assay IC50
T1 construct: Cbl-b (aa36-427, in-house); made in house
Description: (§1) The assay in the absence of a Cbl-b/Cbl inhibitor, where phosphorylation of Cbl-b/Cbl by the Src kinase allows UbcH5B-Ub to bind to Cbl-b/Cbl and brings the Bodipy-Fluorescein tagged ubiquitin in proximity to the streptavidin-terbium bound to the N-terminal biotinylated Avi-tagged Cbl-b/Cbl. […] The lack of a FRET signal indicates Cbl-b/Cbl is inhibited by the Cbl-b/Cbl inhibitor.

Cbl (aa49-434) = biological target: T2, Cbl (aa49-434) (Homo sapiens, UniProt P22681); assay: Co-expressed Cbl with BirA biochemical assay (CBL/E2-Ub binding, HTRF); settings: 0.6 nM Cbl co-expressed with BirA, read-out: co-express CBL/E2-Ub-binding assay IC50
T2 construct: Cbl (aa49-434, in-house); made in house
T2 sequence (P22681 49-434): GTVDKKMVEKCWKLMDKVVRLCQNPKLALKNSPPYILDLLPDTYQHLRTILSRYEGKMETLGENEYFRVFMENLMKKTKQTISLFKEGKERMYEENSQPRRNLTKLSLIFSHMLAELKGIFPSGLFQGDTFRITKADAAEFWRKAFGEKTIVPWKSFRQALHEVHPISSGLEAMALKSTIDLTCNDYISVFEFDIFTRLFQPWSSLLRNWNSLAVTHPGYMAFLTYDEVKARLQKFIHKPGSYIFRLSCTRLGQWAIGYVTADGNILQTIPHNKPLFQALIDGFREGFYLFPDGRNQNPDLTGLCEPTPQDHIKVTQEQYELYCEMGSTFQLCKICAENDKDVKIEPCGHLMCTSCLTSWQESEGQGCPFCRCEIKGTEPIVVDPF
Description: as §1

T1 sequence (Q13191 36-427): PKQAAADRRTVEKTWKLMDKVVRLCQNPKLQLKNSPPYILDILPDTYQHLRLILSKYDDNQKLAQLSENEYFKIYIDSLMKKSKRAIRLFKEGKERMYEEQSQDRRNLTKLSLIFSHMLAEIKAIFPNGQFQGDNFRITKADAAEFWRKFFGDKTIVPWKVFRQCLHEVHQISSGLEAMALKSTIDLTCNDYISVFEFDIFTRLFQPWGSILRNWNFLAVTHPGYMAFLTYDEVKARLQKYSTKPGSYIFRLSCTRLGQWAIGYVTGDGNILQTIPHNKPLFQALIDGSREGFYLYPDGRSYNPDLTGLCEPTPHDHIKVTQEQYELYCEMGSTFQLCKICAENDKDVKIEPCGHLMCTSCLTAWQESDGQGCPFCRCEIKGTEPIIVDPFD

| SMILES | IC50 (Cbl-b (aa36-427)) | IC50 (Cbl (aa49-434)) |
| --- | --- | --- |
| Cc1cnc2c(C(=O)Nc3cncc([C@]4(c5nncn5C)C[C@@H](C)C4)c3)cc(CN[C@H]3C[C@@H](C)C3)cn12 [Compound A86, 3-methyl-N-(5-((1s, 3s)-3-methyl-1-(4-methyl-4H-1,2,4-triazol-3-yl)cyclobutyl)pyridin-3-yl)-6-((((1s, 3s)-3-methylcyclobutyl)amino)methyl)imidazo[1,2-a]pyridine-8-carboxamide] | 2.7 nM | 13 nM |
| Cn1cnnc1[C@]1(c2cccc(NC(=O)c3cc(CNC4(C)CC4)cn4ncnc34)c2)C[C@H](C)C1 [Compound A87, N-(3-((1s, 3s)-3-methyl-1-(4-methyl-4H-1,2,4-triazol-3-yl)cyclobutyl)phenyl)-6-(((1-methylcyclopropyl)amino)methyl)-[1,2,4]triazolo[1,5-a]pyridine-8-carboxamide] | 1.5 nM | 12 nM |
| Cn1cnnc1[C@]1(c2cncc(NC(=O)c3cc(CNC4(C)CC4)cn4ncnc34)c2)C[C@H](C)C1 [Compound A88, N-(5-((1s, 3s)-3-methyl-1-(4-methyl-4H-1,2,4-triazol-3-yl)cyclobutyl)pyridin-3-yl)-6-(((1-methylcyclopropyl)amino)methyl)-[1,2,4]triazolo[1,5-a]pyridine-8-carboxamide] | 4.4 nM | 20 nM |
| Cn1cnnc1[C@]1(c2cccc(NC(=O)c3cc(CNC4(C)CC4)cn4ncnc34)c2)C[C@H](CC#N)C1 [Compound A89, N-(3-((1s, 3s)-3-(cyanomethyl)-1-(4-methyl-4H-1,2,4-triazol-3-yl)cyclobutyl)phenyl)-6-(((1-methylcyclopropyl)amino)methyl)-[1,2,4]triazolo[1,5-a]pyridine-8-carboxamide] | 1.7 nM | 45 nM |
| Cn1cnnc1[C@]1(c2cccc(NC(=O)c3cc(CNC4(C)CC4)cn4ccnc34)c2)C[C@@H](C)C1 [Compound A90, N-(3-((1r, 3r)-3-methyl-1-(4-methyl-4H-1,2,4-triazol-3-yl)cyclobutyl)phenyl)-6-(((1-methylcyclopropyl)amino)methyl)imidazo[1,2-a]pyridine-8-carboxamide] | 0.5 nM | 3.2 nM |
| Cn1cnnc1[C@]1(c2cccc(NC(=O)c3cc(CNC4(C)CC4)cc4ccnn34)c2)C[C@H](C)C1 [Compound A91, N-(3-((1s, 3s)-3-methyl-1-(4-methyl-4H-1,2,4-triazol-3-yl)cyclobutyl)phenyl)-5-(((1-methylcyclopropyl)amino)methyl)pyrazolo[1,5-a]pyridine-7-carboxamide] | 0.6 nM | 4.1 nM |
| Cn1cnnc1[C@]1(c2cccc(NC(=O)c3cc(CNC4(C)CC4)cc4c(F)cnn34)c2)C[C@H](C)C1 [Compound A92, 3-fluoro-N-(3-((1s, 3s)-3-methyl-1-(4-methyl-4H-1,2,4-triazol-3-yl)cyclobutyl)phenyl)-5-(((1-methylcyclopropyl)amino)methyl)pyrazolo[1,5-a]pyridine-7-carboxamide] | 0.4 nM | 2.5 nM |
| Cn1cnnc1[C@]1(c2cncc(NC(=O)c3cc(CNC4(C)CC4)cc4c(F)cnn34)c2)C[C@H](C)C1 [Compound A93, 3-fluoro-N-(5-((1s, 3s)-3-methyl-1-(4-methyl-4H-1,2,4-triazol-3-yl)cyclobutyl)pyridin-3-yl)-5-(((1-methylcyclopropyl)amino)methyl)pyrazolo[1,5-a]pyridine-7-carboxamide] | 1.6 nM | 5.2 nM |
| Cn1cnnc1[C@]1(c2cccc(NC(=O)c3cc(CNC4(C)CC4)cc4c(F)cnn34)c2)C[C@H](CC#N)C1 [Compound A94, N-(3-((1s, 3s)-3-(cyanomethyl)-1-(4-methyl-4H-1,2,4-triazol-3-yl)cyclobutyl)phenyl)-3-fluoro-5-(((1-methylcyclopropyl)amino)methyl)pyrazolo[1,5-a]pyridine-7-carboxamide] | 0.5 nM | 5.9 nM |
| [2H]C([2H])([2H])n1cnnc1[C@]1(c2cccc(NC(=O)c3cc(CNC4(C)CC4)cn4ccnc34)c2)C[C@H](C)C1 [Compound A95, N-(3-((1s, 3s)-3-methyl-1-(4-(methyl-d3)-4H-1,2,4-triazol-3-yl)cyclobutyl)phenyl)-6-(((1-methylcyclopropyl)amino)methyl)imidazo[1,2-a]pyridine-8-carboxamide] | 0.7 nM | 3.4 nM |
| Cn1cnnc1[C@]1(c2cccc(NC(=O)c3cc(CNC4(C)CC4)cc4c(Cl)cnn34)c2)C[C@H](C)C1 [Compound A96, 3-chloro-N-(3-((1s, 3s)-3-methyl-1-(4-methyl-4H-1,2,4-triazol-3-yl)cyclobutyl)phenyl)-5-(((1-methylcyclopropyl)amino)methyl)pyrazolo[1,5-a]pyridine-7-carboxamide] | 0.5 nM | 3.2 nM |
| CC(C)CNCc1cc(C(=O)Nc2cccc([C@]3(c4nncn4C)C[C@@H](C)C3)c2)nc2cc[nH]c12 [Compound B1, 7-((isobutylamino)methyl)-N-(3-((1s, 3s)-3-methyl-1-(4-methyl-4H-1,2,4-triazol-3-yl)cyclobutyl)phenyl)-1H-pyrrolo[3,2-b]pyridine-5-carboxamide] | 0.7 nM | 2.1 nM |
| CC(C)CNCc1cc(C(=O)Nc2cncc([C@]3(c4nncn4C)C[C@@H](C)C3)c2)nc2cc[nH]c12 [Compound B2, 7-((isobutylamino)methyl)-N-(5-((1s, 3s)-3-methyl-1-(4-methyl-4H-1,2,4-triazol-3-yl)cyclobutyl)pyridin-3-yl)-1H-pyrrolo[3,2-b]pyridine-5-carboxamide] | 1.8 nM | 4.7 nM |
| C[C@H](NCc1cc(C(=O)Nc2cccc([C@]3(c4nncn4C)C[C@@H](C)C3)c2)nc2cc[nH]c12)C1CC1 [Compound B3, 7-((((S)-1-cyclopropylethyl)amino)methyl)-N-(3-((1s,3R)-3-methyl-1-(4-methyl-4H-1,2,4-triazol-3-yl)cyclobutyl)phenyl)-1H-pyrrolo[3,2-b]pyridine-5-carboxamide] | 0.7 nM | 1.8 nM |
| C[C@H]1CCCN(Cc2cc(C(=O)Nc3cccc([C@]4(c5nncn5C)C[C@@H](C)C4)c3)nc3cc[nH]c23)C1 [Compound B4, N-(3-((1s,3R)-3-methyl-1-(4-methyl-4H-1,2,4-triazol-3-yl)cyclobutyl)phenyl)-7-(((S)-3-methylpiperidin-1-yl)methyl)-1H-pyrrolo[3,2-b]pyridine-5-carboxamide] | 3 nM | 12 nM |
| C[C@H]1CCCN(Cc2cc(C(=O)Nc3cccc([C@]4(c5nncn5C)C[C@@H](CC#N)C4)c3)nc3cc[nH]c23)C1 [Compound B5, N-(3-((1s,3R)-3-(cyanomethyl)-1-(4-methyl-4H-1,2,4-triazol-3-yl)cyclobutyl)phenyl)-7-(((S)-3-methylpiperidin-1-yl)methyl)-1H-pyrrolo[3,2-b]pyridine-5-carboxamide] | 1.6 nM | 16 nM |
| C[C@H]1CCCN(Cc2cc(C(=O)Nc3cccc(C4(Cc5nncn5C)COC4)c3)nc3cc[nH]c23)C1 [Compound B6, (S)—N-(3-(3-((4-methyl-4H-1,2,4-triazol-3-yl)methyl)oxetan-3-yl)phenyl)-7-((3-methylpiperidin-1-yl)methyl)-1H-pyrrolo[3,2-b]pyridine-5-carboxamide] | 4 nM | 6.9 nM |
| C[C@H]1CCCN(Cc2cc(C(=O)Nc3cccc([C@]4(Cc5nncn5C)C[C@@H](C#N)C4)c3)nc3cc[nH]c23)C1 [Compound B7, N-(3-((1r,3S)-3-cyano-1-((4-methyl-4H-1,2,4-triazol-3-yl)methyl)cyclobutyl)phenyl)-7-(((S)-3-methylpiperidin-1-yl)methyl)-1H-pyrrolo[3,2-b]pyridine-5-carboxamide] | 1.9 nM | 6.4 nM |
| C[C@H]1CCCN(Cc2cc(C(=O)Nc3cccc([C@]4(c5nncn5C)C[C@@H](CC#N)C4)c3)nc3cn[nH]c23)C1 [Compound B8, N-(3-((1s,3R)-3-(cyanomethyl)-1-(4-methyl-4H-1,2,4-triazol-3-yl)cyclobutyl)phenyl)-7-(((S)-3-methylpiperidin-1-yl)methyl)-1H-pyrazolo[4,3-b]pyridine-5-carboxamide] | 1.8 nM | 21 nM |
| Cn1cnnc1CC1(c2cccc(NC(=O)c3cc(CN4CCCC(C(F)(F)F)C4)c4[nH]ccc4n3)c2)COC1 (stereo not drawn) [Compound B9, N-(3-(3-((4-methyl-4H-1,2,4-triazol-3-yl)methyl)oxetan-3-yl)phenyl)-7-((3-(trifluoromethyl)piperidin-1-yl)methyl)-1H-pyrrolo[3,2-b]pyridine-5-carboxamide] | 25.9 nM | 42.9 nM |
| Cc1c[nH]c2c(CN3CCC[C@H](C)C3)cc(C(=O)Nc3cccc([C@]4(c5nncn5C)C[C@@H](CC#N)C4)c3)nc12 [Compound B10, N-(3-((1s,3R)-3-(cyanomethyl)-1-(4-methyl-4H-1,2,4-triazol-3-yl)cyclobutyl)phenyl)-3-methyl-7-(((S)-3-methylpiperidin-1-yl)methyl)-1H-pyrrolo[3,2-b]pyridine-5-carboxamide] | 2 nM | 15.6 nM |
